Legend:
Assay type in all cases: in vivo
[1] = system: Foxtail, Giant (giant foxtail, Setaria faberi); assay: Test A postemergence, Foxtail, Giant; settings: Postemergence, 0 to 100 scale (0 no effect, 100 complete control)
Summary of the method: (§1)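 After sowing into a sand-amended loam, pots for the preemergence test were treated by spraying directly onto soil. In parallel, seedlings at the one- to two-leaf stage and 2 to 10 cm tall were treated postemergence with the identical surfactant-containing formulation.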

[2] = system: Ryegrass, Italian (Italian ryegrass, Lolium multiflorum); assay: Test A postemergence, Ryegrass, Italian; settings: Postemergence, 0 to 100 scale (0 no effect, 100 complete control)
Summary of the method: as §1

[3] = system: wheat (Triticum aestivum); assay: Test A postemergence, wheat; settings: Postemergence, 0 to 100 scale (0 no effect, 100 complete control)
Summary of the method: (§2)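 Test chemicals, formulated in a non-phytotoxic solvent mixture with surfactant, were sprayed postemergence on plants 2 to 10 cm tall at the one- to two-leaf stage. Preemergence treatment was a directed soil spray onto freshly seeded pots. Both used a loam soil and sand blend.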

[4] = system: ragweed (common ragweed, Ambrosia artemisiifolia); assay: Test A postemergence, ragweed; settings: Postemergence, 0 to 100 scale (0 no effect, 100 complete control)
Summary of the method: as §1

[5] = system: barnyardgrass (Echinochloa crus-galli); assay: Test A preemergence, barnyardgrass; settings: Preemergence; for Barnyardgrass plant response rating: 125 g ai/ha, visual injury on 0 to 100 scale (0 no effect, 100 complete control), approximately 10 days; for Plant response rating, Barnyardgrass: 0 to 100 scale (0 no effect, 100 complete control)
Summary of the method: as §1

[6] = system: ragweed (common ragweed, Ambrosia artemisiifolia); assay: Test A preemergence, ragweed; settings: Preemergence
Summary of the method: as §1

kochia (Bassia scoparia) [7] = assay: Test A preemergence, kochia; settings: Preemergence; for Kochia plant response rating: 125 g ai/ha, visual injury on 0 to 100 scale (0 no effect, 100 complete control), approximately 10 days; for Plant response rating, Kochia: 0 to 100 scale (0 no effect, 100 complete control)
Summary of the method: as §1

kochia (Bassia scoparia) [8] = assay: Test A postemergence, kochia; settings: Postemergence, 0 to 100 scale (0 no effect, 100 complete control)
Summary of the method: as §1

[9] = system: pigweed (Amaranthus retroflexus); assay: Test A postemergence, pigweed; settings: Postemergence, 0 to 100 scale (0 no effect, 100 complete control)
Summary of the method: as §1

[10] = system: Ryegrass, Italian (Italian ryegrass, Lolium multiflorum); assay: Test A preemergence, Ryegrass, Italian; settings: Preemergence; for Ryegrass, Italian plant response rating: 125 g ai/ha, visual injury on 0 to 100 scale (0 no effect, 100 complete control), approximately 10 days; for Plant response rating, Ryegrass, Italian: 0 to 100 scale (0 no effect, 100 complete control)
Summary of the method: as §1

[11] = system: barnyardgrass (Echinochloa crus-galli); assay: Test A postemergence, barnyardgrass; settings: Postemergence, 0 to 100 scale (0 no effect, 100 complete control)
Summary of the method: as §2

[12] = system: pigweed (Amaranthus retroflexus); assay: Test A preemergence, pigweed; settings: for Pigweed plant response rating: 125 g ai/ha, visual injury on 0 to 100 scale (0 no effect, 100 complete control), approximately 10 days; for Plant response rating, Pigweed: 0 to 100 scale (0 no effect, 100 complete control)
Summary of the method: as §2

[13] = system: Foxtail, Giant (giant foxtail, Setaria faberi); assay: Test A preemergence, Foxtail, Giant; settings: Preemergence; for Foxtail, Giant plant response rating: 125 g ai/ha, visual injury on 0 to 100 scale (0 no effect, 100 complete control), approximately 10 days; for Plant response rating, Foxtail, Giant: 0 to 100 scale (0 no effect, 100 complete control)
Summary of the method: as §1

[14] = system: blackgrass (Alopecurus myosuroides); assay: Test A postemergence, blackgrass; settings: Postemergence, 0 to 100 scale (0 no effect, 100 complete control)
Summary of the method: as §1

corn (Zea mays) = assay: Test A postemergence, corn; settings: Postemergence, 0 to 100 scale (0 no effect, 100 complete control)
Summary of the method: as §1

[15] = system: galium (catchweed bedstraw, Galium aparine); assay: Test A postemergence, galium; settings: Postemergence, 0 to 100 scale (0 no effect, 100 complete control)
Summary of the method: as §2

[16] = 125 g ai/ha, visual injury approx. 10 days
[17] = 500 g ai/ha, visual injury vs untreated controls after approx. 10 days
[18] = 500 g ai/ha, visual injury, approx. 10 days
[19] = 1000 g ai/ha, visual injury, approx. 10 days

CC(=O)N(c1cc(-c2ccnn(C)c2=O)c(C)cc1C)S(=O)(=O)C(F)(F)F [Compound 56]
40: Kochia plant response rating (kochia (Bassia scoparia) [7]) | Plant response rating, Pigweed [9, 16] | Pigweed plant response rating [9, 17] | Pigweed plant response rating [12]
0: Plant response rating, Ryegrass, Italian [2, 16] | Foxtail, Giant plant response rating [13]
10: Plant response rating, Corn (corn (Zea mays); [16])
70: Wheat plant response rating [3, 17] | Ragweed plant response rating ([6]; 125 g ai/ha, visual injury on 0 to 100 scale (0 no effect, 100 complete control), approximately 10 days)
80: Ryegrass, Italian plant response rating [2, 17] | Corn plant response rating (corn (Zea mays); [17])
50: Plant response rating, Wheat [3, 16] | Plant response rating, Kochia (kochia (Bassia scoparia) [8]; [16]) | Plant response rating, Blackgrass [14, 16] | Blackgrass plant response rating [14, 17]
100: Barnyardgrass plant response rating [5] | Plant response rating, Barnyardgrass ([5]; 500 g ai/ha) | Plant response rating, Kochia (kochia (Bassia scoparia) [7]; 500 g ai/ha) | Ryegrass, Italian plant response rating [10] | Plant response rating, Ryegrass, Italian ([10]; 500 g ai/ha)
20: Plant response rating, Foxtail, Giant ([13]; 500 g ai/ha)
90: Plant response rating, Foxtail, Giant [1, 16] | Foxtail, Giant plant response rating [1, 17] | Ragweed plant response rating [4, 17] | Plant response rating, Ragweed ([6]; 500 g ai/ha, 0 to 100 scale (0 no effect, 100 complete control)) | Plant response rating, Barnyardgrass [11, 16] | Barnyardgrass plant response rating [11, 17] | Plant response rating, Pigweed ([12]; 500 g ai/ha) | Plant response rating, Galium [15, 16] | Galium plant response rating [15, 17]
60: Plant response rating, Ragweed [4, 16] | Kochia plant response rating (kochia (Bassia scoparia) [8]; [17])

Cc1cc(C2CC2)c(NS(=O)(=O)C(F)(F)F)cc1C(=O)N1CCOCC1 [Compound 13]
20: Kochia plant response rating (kochia (Bassia scoparia) [7]) | Plant response rating, Pigweed [9, 18] | Ryegrass, Italian plant response rating [10] | Pigweed plant response rating [12] | Plant response rating, Galium [15, 16]
10: Plant response rating, Foxtail, Giant [1, 18] | Plant response rating, Ragweed [4, 16] | Plant response rating, Kochia (kochia (Bassia scoparia) [8]; [18]) | Plant response rating, Foxtail, Giant ([13]; 500 g ai/ha)
100: Plant response rating, Barnyardgrass ([5]; 500 g ai/ha)
40: Plant response rating, Barnyardgrass [11, 18]
30: Plant response rating, Ragweed [4, 18] | Plant response rating, Ryegrass, Italian ([10]; 500 g ai/ha) | Plant response rating, Galium [15, 18]
50: Plant response rating, Kochia (kochia (Bassia scoparia) [7]; 500 g ai/ha)
60: Barnyardgrass plant response rating [5] | Plant response rating, Pigweed ([12]; 500 g ai/ha)
0: Plant response rating, Foxtail, Giant [1, 16] | Plant response rating, Ryegrass, Italian [2, 16] | Plant response rating, Ryegrass, Italian [2, 18] | Plant response rating, Wheat [3, 16] | Plant response rating, Wheat [3, 18] | Plant response rating, Kochia (kochia (Bassia scoparia) [8]; [16]) | Plant response rating, Pigweed [9, 16] | Plant response rating, Barnyardgrass [11, 16] | Foxtail, Giant plant response rating [13] | Plant response rating, Blackgrass [14, 16] | Plant response rating, Blackgrass [14, 18] | Plant response rating, Corn (corn (Zea mays); [16]) | Plant response rating, Corn (corn (Zea mays); [18])

Cc1cc(C)c(C(=O)N2CCSCC2)cc1NS(=O)(=O)C(F)(F)F [Compound 12]
70: Plant response rating, Kochia (kochia (Bassia scoparia) [8]; [19])
100: Plant response rating, Barnyardgrass ([5]; 1000 g ai/ha) | Plant response rating, Ryegrass, Italian ([10]; 1000 g ai/ha) | Plant response rating, Pigweed ([12]; 1000 g ai/ha) | Plant response rating, Foxtail, Giant ([13]; 1000 g ai/ha)
60: Plant response rating, Wheat [3, 19] | Plant response rating, Ragweed [4, 19]
90: Plant response rating, Foxtail, Giant [1, 19] | Plant response rating, Ryegrass, Italian [2, 19] | Plant response rating, Kochia (kochia (Bassia scoparia) [7]; 1000 g ai/ha) | Plant response rating, Galium [15, 19]
20: Plant response rating, Corn (corn (Zea mays); [19])
30: Plant response rating, Blackgrass [14, 19]
80: Plant response rating, Pigweed [9, 19] | Plant response rating, Barnyardgrass [11, 19]

O=C(c1ccc(Cl)c(NS(=O)(=O)C(F)(F)F)c1)N1CCOCC1 [Compound 15]
10: Foxtail, Giant plant response rating [13]
70: Plant response rating, Ragweed [4, 16] | Plant response rating, Kochia (kochia (Bassia scoparia) [8]; [18]) | Plant response rating, Pigweed ([12]; 500 g ai/ha) | Plant response rating, Foxtail, Giant ([13]; 500 g ai/ha)
40: Plant response rating, Kochia (kochia (Bassia scoparia) [8]; [16])
30: Plant response rating, Ryegrass, Italian [2, 16] | Plant response rating, Pigweed [9, 18] | Ryegrass, Italian plant response rating [10] | Plant response rating, Ryegrass, Italian ([10]; 500 g ai/ha) | Plant response rating, Blackgrass [14, 18]
50: Plant response rating, Foxtail, Giant [1, 18] | Plant response rating, Barnyardgrass [11, 18] | Plant response rating, Galium [15, 16]
0: Plant response rating, Foxtail, Giant [1, 16] | Plant response rating, Ryegrass, Italian [2, 18] | Plant response rating, Wheat [3, 16] | Plant response rating, Wheat [3, 18] | Barnyardgrass plant response rating [5] | Plant response rating, Barnyardgrass ([5]; 500 g ai/ha) | Kochia plant response rating (kochia (Bassia scoparia) [7]) | Plant response rating, Pigweed [9, 16] | Plant response rating, Barnyardgrass [11, 16] | Plant response rating, Blackgrass [14, 16] | Plant response rating, Corn (corn (Zea mays); [16]) | Plant response rating, Corn (corn (Zea mays); [18])
80: Plant response rating, Ragweed [4, 18] | Plant response rating, Kochia (kochia (Bassia scoparia) [7]; 500 g ai/ha)
60: Pigweed plant response rating [12] | Plant response rating, Galium [15, 18]
